US20240139219A1, “COMBINATION OF A SERCA2 INHIBITOR AND A STING ACTIVATOR FOR USE IN TREATING AND/OR PREVENTING CANCER” (Centre national de la recherche scientifique, priority 2021, published 2024)

Experiments:
WT-MEF cells = experiment: RT-qPCR of Ifnβ, Cxcl10 and Isg15 mRNA in WT-MEF stimulated with DMXAA; format: cell-based, murine; conditions: WT-MEF under DMXAA stimulation (200 μM, 2 h) in combination with CDN-1163 (FIG. 4A)
Procedure: WT-MEF cells were cultured 24 h prior 2h stimulation with DMXAA (200 μM) in combination or not with CPA (A-C) or thapsigargin (D-E). Graphs present fold increase Ifnβ, Cxcl10 and Isg15 mRNA levels, as compared to unstimulated cells. Graphs present mean value from duplicates.
WT-MEF cells were cultured 24 h prior 2 h stimulation with DMXAA (200 μM) in combination or not with CDN-1163 (A-C). Graphs present fold increase […], Cxcl10 and Isg15 mRNA levels, as compared to unstimulated cells. Graphs present mean value from duplicates.
(§1) Wild type murine embryonic fibroblasts (WT-MEF) and MEF-Trex^−/−, were maintained in Dulbecco's modified Eagle's medium (DMEM) supplemented with 10% fetal bovine serum (FBS), 1% penicillin/streptomycin and 1% glutamine.
(§2) RNA was extracted using Trizol (Invitrogen) and treated with TURBO DNase (Ambion) according to manufacturer's protocols. Reverse transcription (SuperScript IV reverse transcriptase, Invitrogen) and qPCR using specific primers were performed using SYBR Green Master Mix (Takara) and LightCycler 480 cycler (Roche). mRNA levels were normalized to HSP90 mRNA levels. […]
To this aim, WT-MEFs were treated with the CDN-1163 SERCA2 agonist, and interferon response gene levels were assessed (FIG. 4).

mice = experiment: In vivo toxicity, subcutaneous injection, macroscopic observation of skin at the injection site; conditions: 3 times one injection every 3 day, TA 50 nM, ADUS-100 5 μM, or both (Combi), data not shown
Trex1 KO MEFs = experiment: RT-qPCR of Ifnβ, Cxcl10 and Isg15 mRNA in Trex1 KO MEF (model of chronic STING activation); format: cell-based, murine; conditions: Trex1-deficient MEF, 2 h treatment (FIG. 2)
Procedure: MEF^Trexl−/− cells were treated or not with CPA (A-C) or thapisgargin (D-E) for 2 h. Graphs present fold increase Ifnβ, Cxcl10 and Isg15 mRNA levels, as compared to unstimulated cells. Graphs present mean value from duplicates (A-C) or average of 2 independent experiments (D-F). Error bars: standard deviation.
as §1
RNA was extracted using Trizol (Invitrogen) and treated with TURBO DNase (Ambion) according to manufacturer's protocols. Reverse transcription (SuperScript IV reverse transcriptase, Invitrogen) and qPCR using specific primers were performed using SYBR Green Master Mix (Takara) and LightCycler 480 cycler (Roche). mRNA levels were normalized to HSP90 mRNA levels.
WT-MEF stimulated or not with DMXAA, a murine STING ligand which triggers STING-dependent inflammatory responses (FIG. 1); and Trex I KO MEF which is a model of chronic STING activation (FIG. 2).
WT-MEF or Trex I KO MEF were treated for 2 h with SERCA2 inhibitors thapsigargin (TA) or CPA.

KPC cells = experiment: CellTiter-Glo Luminescent Cell Viability Assay in KPC cells; format: cell-based, murine; conditions: ADUS-100 5 μM, TA 12.5 nM or 6.25 nM, single or combined, viability 24 h after treatment (FIG. 7B)
Procedure: (§3) FIG. 7: Inhibition of SERCA2 (ATP2A2) in combination of STING agonist increases inflammatory responses in cancer cell lines. • (A) The KPC murine pancreatic cell line was cultured 24 h prior to 6 h stimulation with ADUS-100 (5 μM) in combination or not with 12.5 nM or 6.25 nM TA. Graphs present fold increase Cxcl10 mRNA levels, an interferon responding gene, as compared to unstimulated cells. • (B) KPC cells were cultured 24 h prior 6 h stimulation with ADUS-100 (5 μM) in combination or not with 12.5 nM or 6.25 nM TA. Graphs present viability level, as compared to unstimulated cells. • (C) The Panco2 murine pancreatic cell line was cultured 24 h prior to 6 h stimulation with ADUS-100 (5 μM) in combination or not with 12.5 nM or 6.25 nM TA. Graphs present fold increase Cxcl10 mRNA levels, an interferon responding gene, as compared to unstimulated cells. • (D) Panco2 cells were cultured 24 h prior to 6 h stimulation with ADUS-100 (5 μM) in combination or not with 12.5 nM or 6.25 nM TA. Graphs present viability level, as compared to unstimulated cells.
(§4) Murine embryonic fibroblasts (MEF) and murine pancreatic cancer cell lines (KPC and Panc02) were maintained in Dulbecco's modified Eagle's medium (DMEM) supplemented with 10% fetal bovine serum (FBS), 1% penicillin/streptomycin and 1% glutamine. […]

[1] = test system: mouse embryonic fibroblasts (MEFs); experiment: RT-qPCR of Ifnβ mRNA in MEFs stimulated with ADUS-100 with or without thapsigargin; format: cell-based; conditions: MEF, 6 h, TA 12.5 nM or 6.25 nM in combination with ADU-S100 5 μM (FIG. 6A)
Procedure: (§5) FIG. 6: Inhibition of SERCA2 (ATP2A2) in combination with STING agonist increases inflammatory responses in mouse embryonic fibroblasts (MEFs). • (A) MEFs were cultured for 24 h prior to 6 h stimulation with ADUS-100 (5 μM) in combination or not with 12.5 nM or 6.25 nM of thapsigargin (TA). Graphs present fold increase lfnβ mRNA levels, as compared to unstimulated cells. • (B) MEFs were cultured for 24 h prior to 6 h stimulation with ADUS-100 (5 μM) in combination or not with 12.5 nM or 6.25 nM of TA. Graphs present viability level, as compared to unstimulated cells.
(§6) Murine embryonic fibroblasts (MEF) and murine pancreatic cancer cell lines (KPC and Panc02) were maintained in Dulbecco's modified Eagle's medium (DMEM) supplemented with 10% fetal bovine serum (FBS), 1% penicillin/streptomycin and 1% glutamine.
(§7) Cells were treated during 6 h with ADUS-100 (5 μM) in presence or not of thapsigargin (TA) at 12.5 nM or 6.25 nM in complete medium.
as §2

[2] = test system: KPC murine pancreatic cell line; experiment: RT-qPCR of Cxcl10 mRNA in KPC cells stimulated with ADUS-100 with or without thapsigargin; format: cell-based; conditions: 6 h, TA 12.5 nM or 6.25 nM in combination with ADU-S100 5 μM (FIG. 7A)
Procedure: as §3, §4

Panc02 cells = experiment: CellTiter-Glo Luminescent Cell Viability Assay in Panc02 cells; format: cell-based, murine; conditions: ADUS-100 5 μM, TA 12.5 nM or 6.25 nM, single or combined, viability 24 h after treatment (FIG. 7D)
Procedure: as §3, §4

SERCA2 = SERCA2 (Homo sapiens, UniProt P16615); conditions: read-out: IC50 in vitro for SERCA2 (for calcium entry); cited from earlier work
Sequence of SERCA2 (P16615 whole entry): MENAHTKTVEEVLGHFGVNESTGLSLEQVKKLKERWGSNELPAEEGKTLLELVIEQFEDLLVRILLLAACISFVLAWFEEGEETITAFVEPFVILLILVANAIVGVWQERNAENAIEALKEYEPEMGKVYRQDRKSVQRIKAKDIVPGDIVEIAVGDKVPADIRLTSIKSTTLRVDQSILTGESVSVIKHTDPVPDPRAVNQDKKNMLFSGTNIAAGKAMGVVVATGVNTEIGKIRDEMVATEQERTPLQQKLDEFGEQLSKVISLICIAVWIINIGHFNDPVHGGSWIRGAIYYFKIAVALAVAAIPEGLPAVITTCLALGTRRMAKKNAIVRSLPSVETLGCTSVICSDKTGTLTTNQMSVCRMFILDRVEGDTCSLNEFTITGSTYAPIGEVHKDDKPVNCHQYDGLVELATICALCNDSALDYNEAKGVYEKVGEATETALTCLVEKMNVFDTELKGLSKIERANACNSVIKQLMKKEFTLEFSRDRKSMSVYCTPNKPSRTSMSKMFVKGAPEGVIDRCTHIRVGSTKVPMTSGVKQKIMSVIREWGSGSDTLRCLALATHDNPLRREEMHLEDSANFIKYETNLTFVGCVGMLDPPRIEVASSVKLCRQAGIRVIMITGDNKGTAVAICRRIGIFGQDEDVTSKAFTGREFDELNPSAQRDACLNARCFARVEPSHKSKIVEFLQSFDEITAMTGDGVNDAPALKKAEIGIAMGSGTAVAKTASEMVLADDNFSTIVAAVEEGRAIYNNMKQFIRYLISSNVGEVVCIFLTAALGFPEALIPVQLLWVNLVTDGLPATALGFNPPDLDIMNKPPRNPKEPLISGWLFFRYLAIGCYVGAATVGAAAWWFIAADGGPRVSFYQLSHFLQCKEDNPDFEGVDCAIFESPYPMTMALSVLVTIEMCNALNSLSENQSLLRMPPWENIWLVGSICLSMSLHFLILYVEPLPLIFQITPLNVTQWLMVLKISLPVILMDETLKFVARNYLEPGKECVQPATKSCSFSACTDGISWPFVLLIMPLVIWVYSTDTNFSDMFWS

[3] = test system: Panc02 murine pancreatic cell line; experiment: RT-qPCR of Cxcl10 mRNA in Panc02 cells stimulated with ADUS-100 with or without thapsigargin; format: cell-based; conditions: Panc02, 6 h, TA 12.5 nM or 6.25 nM in combination with ADU-S100 5 μM (FIG. 7C)
Procedure: as §3, §4

[4] = test system: mouse embryonic fibroblasts (MEFs); experiment: CellTiter-Glo Luminescent Cell Viability Assay in MEFs; format: cell-based; conditions: MEF; ADUS-100 5 μM, TA 12.5 nM or 6.25 nM, single or combined; viability 24 h after treatment (FIG. 6B)
Procedure: as §5, §6, §7
The CellTiter-Glo® Luminescent Cell Viability Assay was used to determine the number of viable cells 24 h after treatment.

Row | Compound | IFN-β gene expression (WT-MEF cells) | macroscopic observation of skin at the injection site (signs of toxicity) (mice) | CXCL10 mRNA levels (Trex1 KO MEFs) | IFN-β mRNA levels (Trex1 KO MEFs) | ISG15 mRNA levels (Trex1 KO MEFs) | cell toxicity (viability level) (KPC cells) | induced inflammation marker Interferon-β (IFN-β) [1] | induced inflammation marker CXCL10 cytokine [2] | cell toxicity (viability level) (Panc02 cells) | IC50 (SERCA2) [nM] | induced inflammation marker CXCL10 cytokine [3] | cell toxicity (viability level) [4]
1 | Cc1ccc2cccc(NC(=O)c3ccc(OC(C)C)cc3)c2n1 [CDN-1163, N-(2-methylquinolin-8-yl)-4-propan-2-yloxybenzamide] | inhibits |  |  |  |  |  |  |  |  |  |  | 
2 | C/C=C(/C)C(=O)O[C@H]1C(C)=C2[C@H]([C@@H]1OC(=O)CCCCCCC)[C@@](C)(OC(C)=O)C[C@H](OC(=O)CCC)[C@@]1(O)[C@H]2OC(=O)[C@@]1(C)O [Thapsigargin, (3S,3aR,4S,6S,6aR,7S,8S,9bS)-6-(Acetyloxy)-4-(butyryloxy)-3,3a-dihydroxy-3,6,9-trimethyl-8-{[(2Z)-2-methylbut-2-enoyl]oxy}-2-oxo-2,3,3a,4,5,6,6a,7,8,9b-decahydroazuleno[4,5-b]furan-7-yl octanoate] |  | did not display signs of toxicity | increase | increase | increase | low cell toxicity | potentiation | potentiation | low cell toxicity | < 15 | potentiation | low cell toxicity
3 | Nc1ncnc2c1ncn2[C@@H]1O[C@@H]2COP(=O)([S-])O[C@@H]3[C@H](O)[C@@H](COP([O-])(=S)O[C@H]2[C@H]1O)O[C@H]3n1cnc2c(N)ncnc21.[Na+].[Na+] (some centres unmarked) [ADU-S100] |  | did not display signs of toxicity |  |  |  | low cell toxicity |  |  | low cell toxicity |  |  | low cell toxicity
4 | CC(=O)C1=C(O)[C@@H]2[C@H]3c4c[nH]c5cccc(c45)C[C@H]3C(C)(C)N2C1=O [CPA, (6aR,11aS,11bR)-10-Acetyl-11-hydroxy-7,7-dimethyl-2,6,6a,7,11a,11b-hexahydro-9H-pyrrolo[1′,2′:2,3]isoindolo[4,5,6-cd]indol-9-one] |  |  | increase | increase | increase |  |  |  |  | < 2500 |  | 
